US20240393292A1, “ALLERGY ANTIGEN AND EPITOPE THEREOF” (HOYU CO., LTD., priority 2019, published 2024)
Blank lines part the entries; values can stand above or below the substance they belong to.

Tested on: IgE antibodies from patients
Assay: Wheat epitope mapping (2): overlapping 10-amino-acid peptide fragments shifted by one amino acid;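 as to Rank of partial sequence as epitope binding to IgE antibody: key = sequence deemed particularly important within the common 15-residue sequence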;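 as to epitope sequence binding to IgE antibody, rank (Key/Preferably/More preferably): key of grades: preferably = shorter partial sequence still acting as epitope; more preferably = sequence improving IgE binding; key = particularly important sequence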
Format: binding, human
Summary of the method: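 Cellulose-bound 10-mer peptides offset by one residue were probed with patient serum IgE and detected by chemiluminescence. Secondary-antibody-only signals were subtracted per peptide. Residual binding was expressed as % of the parent overlapping peptide, scored as none (<30%), poor (30–<50%), somewhat poor (50–<70%) or retained (≥70%).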

[1] = serum of patient P54 (child, general immediate type allergy to wheat), partial sequence
[2] = serum of patient P36 (WDEIA), sequence without X
[3] = serum of patient G4 (adult, general immediate type allergy to wheat)
[4] = serum of patient P16 (WDEIA), sequence without X
[5] = serum of patient G6 (adult, general immediate type allergy to wheat)
[6] = serum of patient P26 (WDEIA), sequence without X
[7] = serum of patient P10 (WDEIA), sequence without X
[8] = serum of patient P28 (WDEIA), sequence without X
[9] = serum of patient P5 (WDEIA), sequence without X

Substance: 1807 (PKFLKNG; REGION 1..7: note = epitope) [compound 1807]
epitope sequence binding to IgE antibody, rank (Key/Preferably/More preferably) (serum of patient P22 (WDEIA)): Key

Substance: 1499 (YLQPQQPISQ; REGION 1..10: note = epitope) [compound 1499]
Rank of partial sequence as epitope binding to IgE antibody (serum of patient G7 (adult, general immediate type allergy to wheat), sequence without X): More preferably

Substance: 2377 (YVTEIV; REGION 1..6: note = epitope) [compound 2377]
Epitope sequence binding to IgE antibody, rank of the sequence (Key/Preferably/More preferably) (serum of patient P27 (WDEIA), sequence without X): Key

Substance: 1742 (KEAAN; REGION 1..5: note = epitope) [compound 1742]
epitope sequence binding to IgE antibody, rank (Key/Preferably/More preferably) [3]: Preferably

Substance: 1357 (NVEN; REGION 1..4: note = epitope) [compound 1357]
Epitope sequence binding to IgE antibody, rank of the sequence [2]: Key

Substance: 1573 (PQQPQQPFP; REGION 1..9: note = epitope) [compound 1573]
Rank of partial sequence as epitope binding to IgE antibody [4]: Preferably

Substance: 1782 (VSSYLKKVGY; REGION 1..10: note = epitope) [compound 1782]
epitope sequence binding to IgE antibody, rank (Key/Preferably/More preferably) [3]: Key

Substance: 1837 (VRTLQRT; REGION 1..7: note = epitope) [compound 1837]
epitope sequence binding to IgE antibody, rank (Key/Preferably/More preferably) (serum of patient P3 (WDEIA)): Preferably

Substance: 1954 (QQFPGQQ; REGION 1..7: note = epitope) [compound 1954]
epitope sequence binding to IgE antibody, rank (Key/Preferably/More preferably) (serum of patient P26 (WDEIA)): Preferably

Substance: 1889 (TVRTLQR; REGION 1..7: note = epitope) [compound 1889]
epitope sequence binding to IgE antibody, rank (Key/Preferably/More preferably) [5]: Preferably

Substance: 1336 (NVEN; REGION 1..4: note = epitope) [compound 1336]
Epitope sequence binding to IgE antibody, rank of the sequence [6]: Key

Substance: 1777 (KEVSSYLKK; REGION 1..9: note = epitope) [compound 1777]
epitope sequence binding to IgE antibody, rank (Key/Preferably/More preferably) (serum of patient G2 (adult, general immediate type allergy to wheat)): Key

Substance: 1243 (PQQPP; REGION 1..5: note = epitope) [compound 1243]
Epitope sequence binding to IgE antibody, rank of the sequence [6]: Key

Substance: 2224 (IRNYRVA; REGION 1..7: note = epitope) [compound 2224]
Epitope sequence binding to IgE antibody, rank of the sequence (Key/Preferably/More preferably) [4]: Key

Substance: 2277 (DKRVIERFEK; REGION 1..10: note = epitope) [compound 2277]
Epitope sequence binding to IgE antibody, rank of the sequence (Key/Preferably/More preferably) [7]: Key

Substance: 1369 (QQPLPPQQ; REGION 1..8: note = epitope) [compound 1369]
Epitope sequence binding to IgE antibody, rank of the sequence (Key/Preferably/More preferably/Further preferably) (serum of patient P2 (WDEIA), sequence without X): Preferably

Substance: 1354 (VEDNRRALR; REGION 1..9: note = epitope) [compound 1354]
Epitope sequence binding to IgE antibody, rank of the sequence (serum of patient P35 (WDEIA), sequence without X): Key

Substance: 1796 (SGKELEALPK; REGION 1..10: note = epitope) [compound 1796]
epitope sequence binding to IgE antibody, rank (Key/Preferably/More preferably) (serum of patient P15 (WDEIA)): Preferably

Substance: 1183 (QQFPPQQ; REGION 1..7: note = epitope) [compound 1183]
Epitope sequence binding to IgE antibody, rank of the sequence (serum of patient P14 (WDEIA), sequence without X): Key

Substance: 1540 (VQQQQFLG; REGION 1..8: note = epitope) [compound 1540]
Rank of partial sequence as epitope binding to IgE antibody (serum of patient P17 (WDEIA), sequence without X): Preferably

Substance: 1624 (FVPISG; REGION 1..6: note = epitope) [compound 1624]
Rank of partial sequence as epitope binding to IgE antibody (serum of patient P25 (WDEIA), sequence without X): Key

Substance: 1890 (RTLQ; REGION 1..4: note = epitope) [compound 1890]
epitope sequence binding to IgE antibody, rank (Key/Preferably/More preferably) [5]: Key

Substance: 1446 (PQQPISQQQ; REGION 1..9: note = epitope) [compound 1446]
Rank of partial sequence as epitope binding to IgE antibody (serum of patient P21 (WDEIA), sequence without X): Preferably

Substance: 1245 (PQQPPC; REGION 1..6: note = epitope) [compound 1245]
Epitope sequence binding to IgE antibody, rank of the sequence (serum of patient P31 (WDEIA), sequence without X): Preferably

Substance: 2231 (IRNY; REGION 1..4: note = epitope) [compound 2231]
Epitope sequence binding to IgE antibody, rank of the sequence (Key/Preferably/More preferably) [8]: Key

Substance: 2237 (NYRV; REGION 1..4: note = epitope) [compound 2237]
Epitope sequence binding to IgE antibody, rank of the sequence (Key/Preferably/More preferably) (serum of patient P30 (WDEIA), sequence without X): Key

Substance: 1637 (YNPDKVPF; REGION 1..8: note = epitope) [compound 1637]
Rank of partial sequence as epitope binding to IgE antibody (serum of patient P33 (WDEIA), sequence without X): Key

Substance: 1185 (QQFPPQQP; REGION 1..8: note = epitope) [compound 1185]
Epitope sequence binding to IgE antibody, rank of the sequence (serum of patient P19 (WDEIA), sequence without X): Key

Substance: 2268 (ERFEK; REGION 1..5: note = epitope) [compound 2268]
Epitope sequence binding to IgE antibody, rank of the sequence (Key/Preferably/More preferably) [9]: Key

Substance: 1926 (QQQFPGQQQ; REGION 1..9: note = epitope) [compound 1926]
epitope sequence binding to IgE antibody, rank (Key/Preferably/More preferably) (serum of patient P14 (WDEIA)): Preferably

Substance: 1687 (EAANFT; REGION 1..6: note = epitope) [compound 1687]
Rank of partial sequence as epitope binding to IgE antibody [9]: Key

Substance: 1390 (PWQQQ; REGION 1..5: note = epitope) [compound 1390]
Epitope sequence binding to IgE antibody, rank of the sequence (serum of patient P15 (WDEIA), sequence without X): Key

Substance: 1269 (LPRS; REGION 1..4: note = epitope) [compound 1269]
Epitope sequence binding to IgE antibody, rank of the sequence (serum of patient P20 (WDEIA), sequence without X): Key

Substance: 1870 (YTVRTLQR; REGION 1..8: note = epitope) [compound 1870]
epitope sequence binding to IgE antibody, rank (Key/Preferably/More preferably) (serum of patient P29 (WDEIA)): Preferably

Substance: 2252 (LLRGIRNYRV; REGION 1..10: note = epitope) [compound 2252]
Epitope sequence binding to IgE antibody, rank of the sequence (Key/Preferably/More preferably) (serum of patient P52 (child, general immediate type allergy to wheat), sequence without X): More preferably

Substance: 1657 (VPFVPISG; REGION 1..8: note = epitope) [compound 1657]
Rank of partial sequence as epitope binding to IgE antibody (serum of patient P53 (child, general immediate type allergy to wheat), sequence without X): Key

Substance: 1526 (VQQQ; REGION 1..4: note = epitope) [compound 1526]
Rank of partial sequence as epitope binding to IgE antibody [7]: Key

Substance: 1650 (YNPDKVPF; REGION 1..8: note = epitope) [compound 1650]
Rank of partial sequence as epitope binding to IgE antibody (serum of patient P50 (child, general immediate type allergy to wheat), sequence without X): Preferably

Second part, the substance after the results:

Epitope sequence binding to IgE antibody, rank of the sequence (serum of patient P32 (WDEIA), partial sequence): Key
Substance: 2588 (QQLC; REGION 1..4: note = epitope) [compound 2588]

Epitope sequence binding to IgE antibody, rank of the sequence (serum of patient P20 (WDEIA), partial sequence): Preferably
Substance: 2506 (SSQVSFQPSQ; REGION 1..10: note = epitope) [compound 2506]

Epitope sequence binding to IgE antibody, rank of the sequence [1]: Key
Substance: 2603 (QLVQQLC; REGION 1..7: note = epitope) [compound 2603]

Epitope sequence binding to IgE antibody, rank of the sequence (Key/Preferably/More preferably) [2]: Key
Substance: 2402 (TEIV; REGION 1..4: note = epitope) [compound 2402]

Epitope sequence binding to IgE antibody, rank of the sequence (serum of patient P2 (WDEIA), partial sequence): Key
Substance: 2548 (QSTY; REGION 1..4: note = epitope) [compound 2548]

Epitope sequence binding to IgE antibody, rank of the sequence (serum of patient P14 (WDEIA), partial sequence): Key
Substance: 2641 (KEAAEM; REGION 1..6: note = epitope) [compound 2641]

Epitope sequence binding to IgE antibody, rank of the sequence (serum of patient P28 (WDEIA), partial sequence): Key
Substance: 2575 (QLVQ; REGION 1..4: note = epitope) [compound 2575]

Epitope sequence binding to IgE antibody, rank of the sequence (serum of patient P29 (WDEIA), partial sequence): Key
Substance: 2509 (QVSF; REGION 1..4: note = epitope) [compound 2509]

Epitope sequence binding to IgE antibody, rank of the sequence (serum of patient P24 (WDEIA), partial sequence): Key
Substance: 2616 (AKPLL; REGION 1..5: note = epitope) [compound 2616]

Epitope sequence binding to IgE antibody, rank of the sequence (serum of patient P26 (WDEIA), partial sequence): Key
Substance: 2647 (KEAAEM; REGION 1..6: note = epitope) [compound 2647]

Epitope sequence binding to IgE antibody, rank of the sequence (serum of patient P18 (WDEIA), partial sequence): Preferably
Substance: 2716 (YKIGGI; REGION 1..6: note = epitope) [compound 2716]

Epitope sequence binding to IgE antibody, rank of the sequence [1]: Preferably
Substance: 2604 (YQLVQ; REGION 1..5: note = epitope) [compound 2604]

Epitope sequence binding to IgE antibody, rank of the sequence (Key/Preferably/More preferably) (serum of patient P34 (WDEIA), sequence without X): Preferably
Substance: 2393 (PHDIDRCAYV; REGION 1..10: note = epitope) [compound 2393]

Epitope sequence binding to IgE antibody, rank of the sequence (serum of patient P22 (WDEIA), partial sequence): Key
Substance: 2646 (KEAAEMN; REGION 1..7: note = epitope) [compound 2646]

Epitope sequence binding to IgE antibody, rank of the sequence (serum of patient P35 (WDEIA), partial sequence): Key
Substance: 2660 (EMNKRSF; REGION 1..7: note = epitope) [compound 2660]

Epitope sequence binding to IgE antibody, rank of the sequence (serum of patient G5 (adult, general immediate type allergy to wheat), partial sequence): Key
Substance: 2671 (AEMNKRSFK; REGION 1..9: note = epitope) [compound 2671]

Epitope sequence binding to IgE antibody, rank of the sequence (Key/Preferably/More preferably) [8]: Key
Substance: 2441 (KAWSGK; REGION 1..6: note = epitope) [compound 2441]

Epitope sequence binding to IgE antibody, rank of the sequence (serum of patient P53 (child, general immediate type allergy to wheat), partial sequence): Key
Substance: 2516 (SSQVSF; REGION 1..6: note = epitope) [compound 2516]

Epitope sequence binding to IgE antibody, rank of the sequence (serum of patient P30 (WDEIA), partial sequence): Key
Substance: 2738 (VPVGR; REGION 1..5: note = epitope) [compound 2738]
